Results from patent US11505592B2, “Diagnosis and therapy of multiple sclerosis” (PRINDEX S.R.L., priority 2015, dated 2022).

How the values were obtained:
[1] = test system: MS sera; experiment: PEPSCAN-based ELISA, binding of MS sera to library peptides; set-up: species or system human; conditions: ELISA binding value, MS sera n = 9
Excerpt: (§1) The linear and CLIPS peptides are synthesized based on the amino acid sequence of the target protein using standard Fmoc-chemistry and deprotected using […] with scavengers. The constrained peptides are synthesized on chemical scaffolds in order to reconstruct conformational epitopes, using Chemically Linked Peptides on Scaffolds (CLIPS) technology (Timmerman et al. (2007). For example, the single looped peptides are synthesized containing a dicysteine, which was cyclized by treating with alpha, alpha′-dibromoxylene and the size of the loop is varied by introducing cysteine residues at variable spacing. If other cysteines besides the newly introduced cysteines are present, they are replaced by alanine. The side-chains of the multiple cysteines in the peptides are coupled to CLIPS templates by reacting onto credit-card format polypropylene PEPSCAN cards (455 peptide formats/card) with a 0.5 mM solution of CLIPS template such as 1,3-bis (bromomethyl) benzene in ammonium bicarbonate (20 mM, pH 7.9)/acetonitrile (1:1(v/v)). The cards are gently shaken in the solution for 30 to 60 minutes while completely covered in solution. Finally, the cards are washed extensively with excess of H2O and sonicated in distrupt-buffer containing 1 percent SDS/0.1 percent beta-mercaptoethanol in PBS (pH 7.2) at 70° C. for 30 minutes, followed by sonication in H2O for another 45 minutes.
(§2) The binding of antibody to each peptide is tested in a PEPSCAN-based ELISA. The 455-well credit card format polypropylene cards containing the covalently linked peptides are incubated with primary antibody solution for example consisting of 1/1000 diluted serum in blocking solution, for example 4% horse serum, 5% ovalbumin (w/v) in PBS/1% Tween. After washing, the peptides are incubated with a 1/1000 dilution of antibody peroxidase conjugate for one hour at 25° C. After washing, the peroxidase substrate 2,2′-azino-di-3-ethylbenzthiazoline sulfonate (ABTS) and 2 microlitres of 3 percent H2O2 are added. After one hour, the color development are measured. The color development are quantified with a charge coupled device (CCD)-camera and an image processing system (Slootstra et al., 1996).
(§3) The raw data are optical values obtained by a CCD-camera calibrated to export absorption values compatible with a standard 96-well plate ELISA-reader. First the CCD-camera makes a picture of the card before peroxidase coloring and then again a picture after the peroxidase coloring. These two pictures are substracted from each other yielding a binding value for each peptide.
(§4) All peptides have been synthesized in a peptide array format and the binding of 20 different sera to all peptide libraries were measured in an ELISA based set up following the procedure described in detail in the method section “Peptide synthesis and screening assays”. In particular 2 sets of experiments were performed on the 2 libraries by using 2 different dilutions of the human patients sera. In the first set of experiment the 20 sera were used at 1:2500 dilutions, while in the second experiment the dilution of the sera was 1:1000. The binding of the different sera to all peptides was quantified and analyzed in detail (Tables 1 and 2, FIGS. 15A, B, C, D and […]

[2] = test system: CTRL sera; experiment: PEPSCAN-based ELISA, binding of control (CTRL) sera to library peptides; set-up: species or system human; conditions: ELISA binding value, CTRLs n = 10
Excerpt: as §1, §2, §3, §4

Sequence | MEAN MS ([1]; NOX2 library) | MEAN CTRL ([2]; NOX2 library) | MEAN MS ([1]; 5HT2A receptor library) | MEAN CTRL ([2]; 5HT2A receptor library)
CNSDPYSVALSELGDRCITVSEQKISEWGKIKC [SEQ ID NO: 143] | 781.611 | 456.45 | – | –
CNSDPYSVALSELGDRCVSEQKISEWGKIKESC [SEQ ID NO: 130] | 764.528 | 434.925 | – | –
CNSLMQLNDDTRLYCLSSEGSLSPSSLSC [Peptide 6] | – | – | 418.89 | 249.55
CNSLMQLNDDTRLYCMDILSEENTSLSSC [Peptide 1] | – | – | 445.78 | 252.10
CNSLMQLNDDTRLYCYSNDFNSGEANTSC [Peptide 34] | – | – | 459.72 | 268.10
CNSLMQLNDTRLYCSGEANTSDAFNWTC [Peptide 19] | – | – | 564.11 | 299.55
CPYSVALSELGDRQNECITVSEQKISEWGKIKC [SEQ ID NO: 124] | 824.056 | 469.75 | – | –
CQKISEWGKIKAAPIPC [SEQ ID NO: 153] | 710.778 | 402.15 | – | –
CQKISEWGKIKESPIPCQNESYLNFARKRIKNC [SEQ ID NO: 69] | 855.111 | 458.3 | – | –
CQKISEWGKIKESPIPCTVSEQKISEWGKIKEC [SEQ ID NO: 93] | 846.833 | 476.45 | – | –
CQKISEWGKIKESPIPCVHNITVSEQKISEWGC [SEQ ID NO: 149] | 442.611 | 263.25 | – | –
CQKISEWGKIKESPIPCVSEQKISEWGKIKESC [SEQ ID NO: 98] | 815.972 | 450.975 | – | –
CQNESYLNFARKRIKNC [SEQ ID NO: 90] | 667.389 | 361.75 | – | –
CQNESYLNFARKRIKNCNFARKRIKNPEGGLYC [SEQ ID NO: 150] | 697.056 | 392.3 | – | –
CQNESYLNFARKRIKNCSYLNFARKRIKNPEGC [SEQ ID NO: 135] | 711.556 | 396.7 | – | –
CQNESYLNFARKRIKNCVSEQKISEWGKIKESC [SEQ ID NO: 111] | 747.139 | 419.075 | – | –
CQTAESLAVHNITVSECQNESYLNFARKRIKNC [SEQ ID NO: 100] | 697.667 | 367.45 | – | –
CQTAESLAVHNITVSECVSEQKISEWGKIKESC [SEQ ID NO: 139] | 590.111 | 339.65 | – | –
CRQNESYLNFARKRIKC [SEQ ID NO: 95] | 653.944 | 350.1 | – | –
CRVNNSDPYSVALSELCQNESYLNFARKRIKNC [SEQ ID NO: 137] | 743.167 | 398.05 | – | –
CRVNNSDPYSVALSELCVSEQKISEWGKIKESC [SEQ ID NO: 151] | 731.111 | 422.275 | – | –
CSDAFNWTVDSENRCMDILSEENTSLSSC [Peptide 22] | – | – | 394.00 | 207.20

Sequence | MEAN MS ([1]; NOX2 library) | MEAN CTRL ([2]; NOX2 library) | MEAN MS ([1]; 5HT2A receptor library) | MEAN CTRL ([2]; 5HT2A receptor library)
CSELGDRQNESYLNFACQNESYLNFARKRIKNC [SEQ ID NO: 80] | 773.167 | 398.9 | – | –
CSEQKISEWGKIKESPC [SEQ ID NO: 114] | 501.167 | 271.75 | – | –
CSLSSTTNSLMQLNCMDILSEENTSLSSC [Peptide 18] | – | – | 323.72 | 188.90
CSSLSLLHLQEKNWCMDILSEENTSLSSC [Peptide 45] | – | – | 318.17 | 198.50
CSTTNSLMQLNDDTCMDILSEENTSLSSC [Peptide 11] | – | – | 321.28 | 186.85
CSYLNFARKRIKNPEGCGDRQNESYLNFARKRC [SEQ ID NO: 125] | 786.389 | 430.35 | – | –
CSYLNFARKRIKNPEGCITVSEQKISEWGKIKC [SEQ ID NO: 122] | 796.222 | 457.4 | – | –
CSYLNFARKRIKNPEGCNFARKRIKNPEGGLYC [SEQ ID NO: 138] | 659.944 | 371.8 | – | –
CSYLNFARKRIKNPEGCQNESYLNFARKRIKNC [SEQ ID NO: 61] | 778.278 | 398.9 | – | –
CTRLYSNDFNSGEACKESSNEDVIGALLC [Peptide 42] | – | – | 561.03 | 333.60
CTVDSENRTNLSSECMDILSEENTSLSSC [Peptide 13] | – | – | 300.11 | 160.80
CTVDSENRTNLSSECRTNLSSEGSLSPSC [Peptide 25] | – | – | 507.22 | 296.95
CVALSELGDRQNESYLCQNESYLNFARKRIKNC [SEQ ID NO: 110] | 761.778 | 406.75 | – | –
CVFKEGSSLLADDNCKESSNEDVIGALLC [Peptide 38] | – | – | 594.61 | 348.13
CVFKEGSSLLADDNCSDAFNWTVDSENRC [Peptide 47] | – | – | 399.89 | 244.50
CVNARVNNSDPYSVALCTVSEQKISEWGKIKEC [SEQ ID NO: 154] | 799.667 | 455.6 | – | –
CVNARVNNSDPYSVALCVSEQKISEWGKIKESC [SEQ ID NO: 128] | 772.583 | 436.575 | – | –
CVRGQTAESLAVHNITCITVSEQKISEWGKIKC [SEQ ID NO: 134] | 758.278 | 440.5 | – | –
CVRGQTAESLAVHNITCQNESYLNFARKRIKNC [SEQ ID NO: 66] | 824.500 | 438.35 | – | –
CVRGQTAESLAVHNITCSLAVHNITVSEQKISC [SEQ ID NO: 156] | 546.444 | 304.75 | – | –
CVRGQTAESLAVHNITCVHNITVSEQKISEWGC [SEQ ID NO: 148] | 445.278 | 263.5 | – | –
CVSEQKISEWGKIKESCEQKISEWGKIKESPIC [SEQ ID NO: 84] | 811.056 | 443.5 | – | –

Sequence | MEAN MS ([1]; NOX2 library) | MEAN CTRL ([2]; NOX2 library) | MEAN MS ([1]; 5HT2A receptor library) | MEAN CTRL ([2]; 5HT2A receptor library)
CVSEQKISEWGKIKESCGDRQNESYLNFARKRC [SEQ ID NO: 112] | 846.778 | 462.45 | – | –
CVSEQKISEWGKIKESCQNESYLNFARKRIKNC [SEQ ID NO: 64] | 804.556 | 402.9 | – | –
CVSEQKISEWGKIKESCTVSEQKISEWGKIKEC [SEQ ID NO: 142] | 760.333 | 446.5 | – | –
CVSEQKISEWGKIKESCVSEQKISEWGKIKESC [SEQ ID NO: 115] | 756.639 | 432.35 | – | –
DPYSVALSELAARQN [SEQ ID NO: 78] | 565.389 | 325.05 | – | –
DPYSVALSELGDRQN [SEQ ID NO: 132] | 300.556 | 177.25 | – | –
ESYLNFARK [SEQ ID NO: 107] | 535.667 | 296.3 | – | –
FARKRIKNP [SEQ ID NO: 67] | 666.111 | 337.4 | – | –
GDRQNESYLNAGRKR [SEQ ID NO: 68] | 547.278 | 294.2 | – | –
GDRQNESYLNFARKR [SEQ ID NO: 120] | 325.333 | 163.95 | – | –
GKIKECPIP [SEQ ID NO: 102] | 594.611 | 324.35 | – | –
GYRWPLPSK [Peptide 14] | – | – | 623.00 | 322.80
KISEWGKIK [SEQ ID NO: 83] | 404.500 | 223.9 | – | –
LGDRQNESYLAAARK [SEQ ID NO: 127] | 478.278 | 262.75 | – | –
LGDRQNESYLNFARK [SEQ ID NO: 104] | 457.556 | 252.4 | – | –
LNFARKRIK [SEQ ID NO: 59] | 557.056 | 294.6 | – | –
LNFARKRIKNAAGGL [SEQ ID NO: 91] | 354.778 | 187.85 | – | –
LTILYGYRWPAASKL [Peptide 3] | – | – | 653.28 | 322.35
LTILYGYRWPLPSKL [Peptide 8] | – | – | 647.17 | 340.05
NESYLNFARKAAKNP [SEQ ID NO: 62] | 505.278 | 279.1 | – | –
